Measured values published in paper PMC6199744, “Development of Chemical Proteomics for the Folateome and Analysis of the Kinetoplastid Folateome” (ACS Infectious Diseases, 2018).
Read-outs that look alike come from different tables or passages of the source.

Legend:
Format in all cases: binding
[1] = target: T1, HeLa cell extract proteins (Homo sapiens, UniProt P30837)
T1 construct: endogenous in cells; host or cells: HeLa cell extract
T1 sequence (P30837 18-517): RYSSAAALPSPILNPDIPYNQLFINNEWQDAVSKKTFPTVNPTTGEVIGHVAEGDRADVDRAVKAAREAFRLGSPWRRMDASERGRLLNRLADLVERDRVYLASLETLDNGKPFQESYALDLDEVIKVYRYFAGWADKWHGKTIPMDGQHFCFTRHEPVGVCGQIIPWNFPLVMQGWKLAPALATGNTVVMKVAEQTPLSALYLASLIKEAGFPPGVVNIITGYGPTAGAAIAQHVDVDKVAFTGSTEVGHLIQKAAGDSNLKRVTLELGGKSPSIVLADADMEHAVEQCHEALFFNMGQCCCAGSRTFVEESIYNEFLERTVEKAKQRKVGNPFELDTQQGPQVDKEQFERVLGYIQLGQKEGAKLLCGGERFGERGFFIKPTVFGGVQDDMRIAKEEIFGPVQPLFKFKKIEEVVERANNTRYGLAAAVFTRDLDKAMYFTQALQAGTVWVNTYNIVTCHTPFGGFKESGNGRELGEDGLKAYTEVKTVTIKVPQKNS

[2] = target: T2, HeLa cell extract proteins (Homo sapiens, UniProt P55209)
T2 construct: endogenous in cells; host or cells: HeLa cell extract
T2 sequence (P55209 1-391): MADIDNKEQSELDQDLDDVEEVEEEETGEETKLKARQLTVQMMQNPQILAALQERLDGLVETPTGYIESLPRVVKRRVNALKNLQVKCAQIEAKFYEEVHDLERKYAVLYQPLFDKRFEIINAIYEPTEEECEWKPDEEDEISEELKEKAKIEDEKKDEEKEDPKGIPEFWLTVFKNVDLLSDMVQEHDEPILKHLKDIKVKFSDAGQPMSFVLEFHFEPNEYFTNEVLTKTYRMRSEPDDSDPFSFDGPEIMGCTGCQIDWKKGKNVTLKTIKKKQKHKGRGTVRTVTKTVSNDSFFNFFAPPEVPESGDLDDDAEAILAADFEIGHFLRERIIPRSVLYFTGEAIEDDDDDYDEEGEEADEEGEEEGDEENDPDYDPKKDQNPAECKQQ

[3] = target: T3, HeLa cell extract proteins (Homo sapiens, UniProt P05109)
T3 construct: endogenous in cells; host or cells: HeLa cell extract
T3 sequence (P05109 1-93): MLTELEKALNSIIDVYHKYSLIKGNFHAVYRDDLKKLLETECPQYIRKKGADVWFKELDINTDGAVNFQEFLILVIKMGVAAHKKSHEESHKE

[4] = target: T4, HeLa cell extract proteins (Homo sapiens, UniProt P52298)
T4 construct: endogenous in cells; host or cells: HeLa cell extract
T4 sequence (P52298 1-156): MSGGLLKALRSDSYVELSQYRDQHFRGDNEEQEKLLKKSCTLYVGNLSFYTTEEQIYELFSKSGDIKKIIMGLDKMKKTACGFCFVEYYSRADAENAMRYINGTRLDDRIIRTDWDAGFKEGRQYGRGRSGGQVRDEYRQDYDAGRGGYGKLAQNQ

[5] = target: T5, HeLa cell extract proteins (Homo sapiens, UniProt Q8NB46)
T5 construct: endogenous in cells; host or cells: HeLa cell extract
T5 sequence (Q8NB46 1-1076): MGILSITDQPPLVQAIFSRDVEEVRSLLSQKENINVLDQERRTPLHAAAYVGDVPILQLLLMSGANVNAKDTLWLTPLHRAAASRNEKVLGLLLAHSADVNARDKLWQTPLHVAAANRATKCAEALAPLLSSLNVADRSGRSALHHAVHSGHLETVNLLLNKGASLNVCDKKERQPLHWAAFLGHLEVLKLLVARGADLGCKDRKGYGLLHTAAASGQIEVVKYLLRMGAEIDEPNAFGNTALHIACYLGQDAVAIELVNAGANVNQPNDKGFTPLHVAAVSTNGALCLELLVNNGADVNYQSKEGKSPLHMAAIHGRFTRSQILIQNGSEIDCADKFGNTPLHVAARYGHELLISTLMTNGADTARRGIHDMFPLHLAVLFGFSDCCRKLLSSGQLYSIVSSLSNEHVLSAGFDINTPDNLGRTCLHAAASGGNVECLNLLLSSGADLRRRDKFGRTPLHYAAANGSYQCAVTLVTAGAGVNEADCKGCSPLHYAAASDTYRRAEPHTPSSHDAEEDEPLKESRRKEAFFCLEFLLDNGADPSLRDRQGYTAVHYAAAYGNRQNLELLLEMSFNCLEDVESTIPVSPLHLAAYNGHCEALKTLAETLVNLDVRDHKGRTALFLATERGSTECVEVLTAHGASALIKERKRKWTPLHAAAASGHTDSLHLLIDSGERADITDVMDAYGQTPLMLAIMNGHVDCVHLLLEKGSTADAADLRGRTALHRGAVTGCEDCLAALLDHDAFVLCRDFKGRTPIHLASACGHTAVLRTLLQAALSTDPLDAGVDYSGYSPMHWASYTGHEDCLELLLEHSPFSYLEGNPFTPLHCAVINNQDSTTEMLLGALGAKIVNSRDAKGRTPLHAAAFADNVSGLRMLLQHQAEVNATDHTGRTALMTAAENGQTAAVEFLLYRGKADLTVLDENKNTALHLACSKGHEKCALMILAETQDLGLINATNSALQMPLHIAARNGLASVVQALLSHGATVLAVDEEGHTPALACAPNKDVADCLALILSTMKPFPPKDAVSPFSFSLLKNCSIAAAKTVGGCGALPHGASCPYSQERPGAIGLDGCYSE

[6] = target: T6, HeLa cell extract proteins (Homo sapiens, UniProt O76071)
T6 construct: endogenous in cells; host or cells: HeLa cell extract
T6 sequence (O76071 whole entry): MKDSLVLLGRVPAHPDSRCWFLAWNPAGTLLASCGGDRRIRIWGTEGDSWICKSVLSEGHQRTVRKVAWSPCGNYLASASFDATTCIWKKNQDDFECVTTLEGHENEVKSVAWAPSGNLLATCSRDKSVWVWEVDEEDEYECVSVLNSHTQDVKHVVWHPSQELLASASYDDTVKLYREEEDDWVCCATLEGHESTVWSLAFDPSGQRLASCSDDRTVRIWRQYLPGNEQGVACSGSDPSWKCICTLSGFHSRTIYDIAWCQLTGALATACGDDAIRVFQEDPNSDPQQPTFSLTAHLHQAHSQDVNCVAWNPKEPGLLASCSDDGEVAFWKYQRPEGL

[7] = target: T7, HeLa cell extract proteins (Homo sapiens, UniProt P14314); settings: HeLa; protein PRKCSH (CDNA FLJ59211, HIGHLY SIMILAR TO GLUCOSIDASE 2 SUBUNIT BETA.)
T7 construct: endogenous in cells; host or cells: HeLa cell extract
T7 sequence (P14314 15-528): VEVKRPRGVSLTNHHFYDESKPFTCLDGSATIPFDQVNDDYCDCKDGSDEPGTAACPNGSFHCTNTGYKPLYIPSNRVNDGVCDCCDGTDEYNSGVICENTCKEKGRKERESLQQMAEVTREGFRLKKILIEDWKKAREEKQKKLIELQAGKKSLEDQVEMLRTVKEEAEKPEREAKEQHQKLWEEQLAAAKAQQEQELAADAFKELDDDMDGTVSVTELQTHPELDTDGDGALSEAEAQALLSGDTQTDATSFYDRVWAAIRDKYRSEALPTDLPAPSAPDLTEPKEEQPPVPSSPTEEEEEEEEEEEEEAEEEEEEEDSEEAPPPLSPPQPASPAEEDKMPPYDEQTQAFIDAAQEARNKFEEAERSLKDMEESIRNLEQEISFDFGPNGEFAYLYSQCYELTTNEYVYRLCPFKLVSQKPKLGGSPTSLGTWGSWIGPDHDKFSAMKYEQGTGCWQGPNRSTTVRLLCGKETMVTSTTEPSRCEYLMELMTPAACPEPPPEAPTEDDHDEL

[8] = HeLa, protein NCBP2 (NUCLEAR CAP-BINDING PROTEIN SUBUNIT 2)

For `Nc1nc2c(c(=O)[nH]1)N(C=O)C(CNc1ccc(C(=O)N[C@@H](CCC(=O)O)C(=O)O)cc1)CN2` (stereo partly drawn) [LEU, leucovorin], the “fold changes relative to vehicle control” value ([1]; HeLa, captured protein ALDH1B1) was 1.03, the “fold changes relative to vehicle control” value ([2]; HeLa, captured protein NAP1L1) was 0.97 and the “fold changes relative to vehicle control” value ([3]; protein S100A8, HeLa) was 0.28. For the same compound, the “fold changes relative to vehicle control” value [4, 8] was 1.05, the “fold changes relative to vehicle control” value ([5]; HeLa, protein ANKRD52) was 0.89 and the “fold changes relative to vehicle control” value ([6]; HeLa, protein CIAO1) was 0.94.

For `Nc1nc2[nH]cc(CCc3ccc(C(=O)N[C@@H](CCC(=O)O)C(=O)O)cc3)c2c(=O)[nH]1` [PTX, pemetrexed], the “fold changes relative to vehicle control” value [1] was 0.93, the “fold changes relative to vehicle control” value [2] was 1.04 and the “fold changes relative to vehicle control” value [3] was 0.34. For the same compound, the “fold changes relative to vehicle control” value [4] was 0.91, the “fold changes relative to vehicle control” value [5] was 1.01 and the “fold changes relative to vehicle control” value [6] was 0.86.

In the case of `CCCCCCOc1ccc(Cc2cnc(N)nc2N)cc1` [compound 1], the “fold changes relative to vehicle control” value [7] is reported as 1.76 fold.

For `CCCCCCOc1cccc(Cc2cnc(N)nc2N)c1` [compound 2], the “fold changes relative to vehicle control” value [7] was 2.8 fold.

`Nc1nc2cccc(-c3ccccc3)c2n1Cc1ccc(Cl)c(Cl)c1` [compound 3] was tested, and the “fold changes relative to vehicle control” value [7] was 1.26 fold.

In the case of `NCCOCCOCC(=O)Nc1nc2ncc(CNc3ccc(C(=O)NC(CCC(=O)O)C(=O)O)cc3)nc2c(=O)[nH]1` (stereo not drawn) [compound 6], the “fold changes relative to vehicle control” value ([1]; HeLa, captured protein ALDH1B1) is reported as 1.06, the “fold changes relative to vehicle control” value ([2]; HeLa, captured protein NAP1L1) is reported as 1.19 and the “fold changes relative to vehicle control” value ([3]; protein S100A8, HeLa) is reported as 0.4. For the same compound, the “fold changes relative to vehicle control” value [4, 8] was 0.91, the “fold changes relative to vehicle control” value ([5]; HeLa, protein ANKRD52) was 1.06 and the “fold changes relative to vehicle control” value ([6]; HeLa, protein CIAO1) was 0.93.

In the case of `NCCCNc1ccc(C(=O)NC(CCC(=O)O)C(=O)O)cc1` (stereo not drawn) [compound 7], the “fold changes relative to vehicle control” value ([1]; HeLa, captured protein ALDH1B1) is reported as 0.95, the “fold changes relative to vehicle control” value ([2]; HeLa, captured protein NAP1L1) is reported as 1.06 and the “fold changes relative to vehicle control” value ([3]; protein S100A8, HeLa) is reported as 0.26. The “fold changes relative to vehicle control” value [4, 8] was 0.95, the “fold changes relative to vehicle control” value ([5]; HeLa, protein ANKRD52) was 1.03 and the “fold changes relative to vehicle control” value ([6]; HeLa, protein CIAO1) was 0.91.
